Data from US10308617B2, “Triazole benzamide derivatives and the compositions and methods of treatment regarding the same” (An2H Discovery Limited, priority 2016, dated 2019).

Target: T1, Parkin ligase (Homo sapiens, UniProt O60260)
T1 sequence (O60260 1-465): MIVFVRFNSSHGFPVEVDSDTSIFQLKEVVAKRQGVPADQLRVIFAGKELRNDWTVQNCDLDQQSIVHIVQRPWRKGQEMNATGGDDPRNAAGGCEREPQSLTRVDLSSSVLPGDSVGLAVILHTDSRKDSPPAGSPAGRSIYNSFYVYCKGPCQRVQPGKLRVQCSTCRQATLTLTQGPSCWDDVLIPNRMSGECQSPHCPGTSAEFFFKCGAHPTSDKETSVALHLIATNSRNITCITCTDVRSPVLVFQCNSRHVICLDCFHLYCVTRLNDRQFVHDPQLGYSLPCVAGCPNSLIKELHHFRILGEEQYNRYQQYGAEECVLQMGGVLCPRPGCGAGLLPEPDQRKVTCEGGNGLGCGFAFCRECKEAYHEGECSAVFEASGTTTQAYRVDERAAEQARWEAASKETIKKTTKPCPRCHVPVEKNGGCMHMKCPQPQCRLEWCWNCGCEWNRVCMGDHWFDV
Assay: Activity-Based Probe Assay using an Ubiquitin vinyl sulfone probe (TR-FRET)
Assay type: biochemical
Details: for EC50: Parkin activation, HA-Ub-VS probe, heat activated Parkin, read-out: Probe Assay EC50 (μM) [Example 2]
Procedure: An Ubiquitin vinyl sulfone probe can be used that irreversibly binds to the active site cysteine of Parkin ligase. Covalent attachment of the probe to the Parkin can be monitored by TR-FRET. Candidate activator compounds can be identified by increasing the activity of Parkin ligase due to an increase in TR-FRET signal. Screening for activating compounds can be distinguished from the controls as follows: • 100% activation signal=Heat activated Parkin+100 nM control activator in DMSO. • 0% activation signal=Heat activated Parkin+DMSO only. • Parkin activators can be identified by an increase of the 0% activation signal TR-FRET signal.
• Assay Plate: White 384 well plate (Corning 3572) • Enzyme: Parkin-His tagged 203 μM (10.5 mg/ml) • Probe: Ubiquitin vinyl-sulfone (HA-Ub-VS Boston Biochem U-212) • DMSO: DMSO (Sigma cat # D4540-100ML) • Reaction Buffer: 50 mM HEPES (pH 8.5), 150 mM NaCl, 0.01% Tween 20, 0.1% BSA • Detection Buffer: 50 mM HEPES (pH 8.5), 150 mM NaCl, 0.01% Tween 20, 0.1% BSA, 800 mM KF • Detection Reagent A: 2.6 nM Anti-6HIS-Eu cryptate and 40 nM Anti-HA-XL665 in detection buffer • Eu cryptate: Anti-6HIS-Eu cryptate (CisBio 61HISKLA) • XL665: Anti-HA-XL665 (CisBio 610HAXLA) Enzyme Reaction (15 min pre incubation Parkin with activator only) • Parkin: 40 nM • HA-Ub-VS Probe: 70 nM • Activator/DMSO: 2× Activator/2% DMSO • Reaction time: 60 minutes • Temperature: 22° C. • Total volume: 10 μl reaction Detection Reaction • Take 10 μl of Enzyme Reaction above and add 10 μl detection Reagent A under the following conditions: • Reaction time: 60 minutes • Temperature: 22° C. • Total volume: 20 μl
Assay procedure (Using HP D-300 compound dispenser and Bravo for the operation): • 1) Heat activate Parkin in reaction buffer (500 μl/1.5 ml tube: Eppendorf Thermomixer 5 minutes, 400 rpm at 58° C. and put on ice until needed). • 2) Load assay plate wells with 4.8 μl 84.5 nM Parkin in reaction buffer by use of Bravo. • 3) Deliver 0.2 μl 200× activator candidates in DMSO by use of HP D-300 compound dispenser. Highest 200× concentration=[…] and then twofold dilutions. • 4) Spin 1000 rpm, 2 minutes, at room temp. • 5) Incubate plate for 15 minutes at room temp. • 6) Add 5 μl 140 nM HA-Ub-VS Probe in reaction buffer by use of Bravo. • 7) Spin 1000 rpm, 2 minutes, at room temp. • 8) Incubate plate for 60 minutes at room temp. • 9) Add 10 μl 2.6 nM Anti-6HIS-Eu cryptate and 40 nM Anti-HA-XL665 in detection buffer. • 10) Spin 1000 rpm, 2 minutes, at room temp. • 11) Incubate plate for 60 minutes at room temp. • 12) Read plates on Perkin Elmer Envision instrument with the following parameters: • LANCE dual laser protocol loaded into the Envision® software • Top Mirror: LANCE/DELFIA Duel/Bias (Bar code 446) • Emission Filter: APC 665 EM (Bar code 205) • 2nd Emission Filter: Europium 615 EM (Bar code 203) • Read 655 nm (channel 1) and 615 nm (channel 2) wavelengths on Envision®
Data Analysis: The Data can be read in CSV files. There are two tables in those CSV files, which are the values of 655 nm (channel 1) and 615 nm (channel 2) wavelengths respectively. The data is converted to an HTRF Ratio=(Channel 1/Channel 2)*10,000
The average of all the 0 uM controls (DMSO only)=BKGD (Background—0% activation). Subtract BKGD from each HTRF Ratio value=HTRF-BKGD. The average of all the […] 100 nM control activator in DMSO controls=Max (100% activation). The following equation is then used to calculate % Activation for each well/candidate as follows: % Activation=(HTRF-BKGD/Max)*100.
Graphpad Prisim was used with Transform X values: X=Log(X) and nonlinear regression (dose-response-stimulation): Log(agonist) vs Response—variable slope (four parameters) with constrains set to Bottom=0 and Top=100.
The Activity-Based Probe Assay was performed with various compounds in Tables 1-3.

Structure (SMILES) | EC50 [µM] | Parkin Ligase reaction with the Activity-based Ubiquitin vinyl sulfone probe
O=C(Nc1nc(Nc2cc(N3CCCC3)nc3ccccc23)n(-c2ccccc2)n1)c1ccccc1 [Compound A1] | > 100 | 
O=C(Nc1nc(NC(=O)c2cc3ccccc3s2)n(-c2ccccc2)n1)c1ccccc1 [Compound A2] | 50 | 
O=C(Nc1nc(NC(=O)c2ccccc2)n(-c2ccccc2)n1)c1ccccc1 [Compound A, N,N′-(1-phenyl-1H-1,2,4-triazole-3,5-diyl)dibenzamide] | 7 | increases
O=C(Nc1nc(Nc2nc(N3CCCC3)c3ccccc3n2)n(-c2ccccc2)n1)c1ccccc1 [Compound B1] | > 100 | 
O=C(Nc1nc(NC(=O)c2ccc3ccccc3n2)n(-c2ccccc2)n1)c1ccccc1 [Compound B2] | 4 | 
CC(=O)Nc1nc(NC(C)=O)n(-c2ccccc2)n1 [Compound B] | > 100 | 
O=C(Nc1nc(Nc2ncnc3ccccc23)n(-c2ccccc2)n1)c1cccs1 [Compound C1] | 3.7 | 
Cc1ccccc1C(=O)Nc1nc(NC(=O)/C=C/c2ccccc2)n(-c2ccccc2)n1 [Compound C2] | 4 | 
O=C(/C=C/c1ccccc1)Nc1nc(NC(=O)c2ccccc2)nn1-c1ccccc1 [Compound C, N-(5-cinnamamido-1-phenyl-1H-1,2,4-triazol-3-yl)benzamide] | 15.1 | increases
CN1CCC(C(=O)Nc2nc(Nc3ncnc4ccccc34)n(-c3ccccc3)n2)CC1 [Compound D1] | 38.9 | 
O=C(Nc1nc(NC(=O)c2ccccc2)n(-c2ccc3ccccc3n2)n1)c1ccccc1 [Compound D2] | 89 | 
O=C(Nc1nc(Nc2nc(O)nc3ccccc23)n(-c2ccccc2)n1)c1ccccc1 [Compound E1] | > 100 | 
O=C(Nc1nc(NC(=O)c2ccccc2)n(-c2ccc3c(c2)OCCO3)n1)c1ccccc1 [Compound E2] | 6 | 
O=C(Nc1nc(NC(=O)c2ccccc2)n(-c2ccc(I)cc2)n1)c1ccccc1 [Compound E, N-[5-benzamido-1-(4-iodophenyl)-1,2,4-triazol-3-yl]benzamide] | 15.3 | 
CCN(CC)c1cc(Nc2nc(NC(=O)c3ccccc3)nn2-c2ccccc2)ncn1 [Compound F1] | > 100 | 
COc1ccc(-n2nc(NC(=O)c3ccccc3)nc2NC(=O)c2ccccc2)cc1 [Compound F2] | 12 | 
Cc1ccccc1C(=O)Nc1nc(NC(=O)c2ccccc2C)n(-c2ccccc2)n1 [Compound F, 2-methyl-N-[5-[(2-methylbenzoyl)amino]-1-phenyl-1,2,4-triazol-3-yl]benzamide] | 6.7 | 

Structure (SMILES) | EC50 [µM] | Parkin Ligase reaction with the Activity-based Ubiquitin vinyl sulfone probe
O=C(Nc1nc(Nc2cc(N3CCCC3)ncn2)n(-c2ccccc2)n1)c1ccccc1 [Compound G1] | > 100 | 
O=C(Nc1nc(NC(=O)c2cccs2)nn1-c1ccccc1)c1ccccc1 [Compound G2] | 2 | 
O=C(Nc1nc(Nc2ccncn2)n(-c2ccccc2)n1)c1ccccc1 [Compound H1] | > 100 | 
Cc1ccccc1C(=O)Nc1nc(-c2ccccn2)nn1-c1ccc(OC(F)(F)F)cc1 [Compound H3] | 3 | 
Cc1ccccc1C(=O)Nc1nc(NC(=O)c2ccccc2)n(-c2ccccc2)n1 [Compound H] | > 100 | 
O=C(Nc1nc(Nc2ccnc3ccccc23)n(-c2ccccc2)n1)c1ccccc1 [Compound I1] | > 100 | 
O=C(Nc1nc(NC(=O)c2ccccc2)n(C2CCOCC2)n1)c1ccccc1 [Compound I2] | > 100 | 
Nc1nc(Nc2nc(NC(=O)c3ccccc3)nn2-c2ccccc2)c2ccccc2n1 [Compound J1] | > 100 | 
O=C(Nc1nc(NC(=O)c2ccccc2)n(-c2ccc3ncccc3c2)n1)c1ccccc1 [Compound J2] | 6 | 
CC(C)C(=O)Nc1nc(Nc2ncnc3ccccc23)n(-c2ccccc2)n1 [Compound K1] | 9.2 | 
Cc1ccccc1C(=O)Nc1nc(NC(=O)c2cccs2)nn1-c1ccccc1 [Compound K2] | 6 | 
Cc1ccccc1C(=O)Nc1nc(NC(=O)c2ccccc2)nn1-c1ccccc1 [Compound K, N-(5-benzamido-2-phenyl-1,2,4-triazol-3-yl)-2-methyl-benzamide] | 10.8 | 
C/C=C/C(=O)Nc1nc(Nc2ncnc3ccccc23)n(-c2ccccc2)n1 [Compound L1] | 37 | 
C=CC(=O)Nc1nc(NC(=O)c2ccccc2)nn1-c1ccccc1 [Compound L2] | > 100 | 
O=C(Nc1nc(Nc2ncnc3ccccc23)n(-c2ccccc2)n1)c1ccccc1 [Compound L, N-[1-phenyl-5-(quinazolin-4-ylamino)-1,2,4-triazol-3-yl]benzamide] | 1.8 | 
C=C(C)C(=O)Nc1nc(Nc2ncnc3ccccc23)n(-c2ccccc2)n1 [Compound M1] | 11.9 | 
O=C(Nc1nc(NC(=O)c2nc3ccccc3s2)n(-c2ccccc2)n1)c1ccccc1 [Compound M2] | > 100 | 

Other lines, results leading:

EC50 [µM] | Parkin Ligase reaction with the Activity-based Ubiquitin vinyl sulfone probe | Structure (SMILES)
> 100 |  | Nc1nc(Nc2nc(NC(=O)c3ccccc3)nn2-c2ccccc2)nc2ccccc12 [Compound N1]
12.8 |  | O=C(Nc1nc(Nc2nc(O)c3ccccc3n2)n(-c2ccccc2)n1)c1ccccc1 [Compound O1]
> 100 |  | O=C(Nc1nc(NC(=O)c2ccccc2)n(-c2cccc3cccnc23)n1)c1ccccc1 [Compound O2]
> 100 |  | O=C(Nc1nc(NC(=O)c2ccccc2)n(-c2cccc3ncccc23)n1)c1ccccc1 [Compound P2]
26 |  | Cc1ccccc1C(=O)Nc1nc(-c2ccccn2)nn1-c1ccccc1 [Compound Q2]
4 |  | Cc1ccccc1C(=O)Nc1nc(NC(=O)c2ccccc2C)n(-c2ccc(Cl)cc2)n1 [Compound Q3]
4 |  | Cc1ccccc1C(=O)Nc1nc(Nc2ncnc3ccccc23)n(-c2ccccc2)n1 [Compound R2]
3 |  | Cc1ccc(-c2nc(NC(=O)c3ccccc3C)n(-c3ccccc3)n2)nc1 [Compound R3, 2-methyl-N-(3-(5-methylpyridin-2-yl)-1-phenyl-1H-1,2,4-triazol-5-yl)benzamide]
> 100 |  | Cc1ccccc1C(=O)Nc1nc(-c2ccncc2)nn1-c1ccccc1 [Compound S2]
3 |  | Cc1ccccc1C(=O)Nc1nc(-c2ncccc2C)nn1-c1ccccc1 [Compound S3, 2-methyl-N-(3-(3-methylpyridin-2-yl)-1-phenyl-1H-1,2,4-triazol-5-yl)benzamide]
> 100 |  | Cc1ccccc1C(=O)Nc1nc(-c2cccnc2)nn1-c1ccccc1 [Compound T2]
25.9 |  | O=C(/C=C/c1ccccc1)Nc1nc(NC(=O)c2ccccc2)nn1-c1ccccn1 [Compound U1]
